# In patent US20250298027A1, “METHOD OF EVALUATING SMALL MOLECULE DISTRIBUTION USING TELLUROPHENE ANALOGUES” (THE GOVERNING COUNCIL OF THE UNIVERSITY OF TORONTO, priority 2022, published 2025):
# Legend:
# HL-60 cells = test: WST-1 viability assay in HL-60 cells; type: cell-based; settings: Homo sapiens, HL-60, 24 h, read-out: inhibition of proliferation of HL-60 cells
# Procedure: The toxicity of 1 was compared to teniposide in HL-60 cells after incubation for 24 hours using a WST-1 viability assay.
# WST-1 metabolic cytotoxicity assay: HL-60 cells (ATCC® CCL-240TM) were maintained in DMEM media with 2 mM L-glutamine (Gibco) supplemented with 20% calf serum and 100× dilution of penicillin-streptomycin solution (Gibco). Cells were maintained at 37° C. in a humidified atmosphere of 5% CO2 in air. HL-60 cells (100 pL) were seeded into a 96 well clear at a density of 5×10^5 cells/mL. Cells were treated with either DMSO or appropriate inhibitor from DMSO stocks. […] Cells were incubated for 24 h at 37° C. under a 5% CO2 atmosphere. WST-1 reagent (10 pL; Roche Diagnostics, 05015944001) was added to each well and gently mixed by pipetting. Cells were incubated for 1 h at 37° C. under 5% CO2 atmosphere. UV-vis absorbance measurements of each well at 450 nm was recorded using a TECAN Safire 2 plate reader. Data was background corrected against wells that contained cell growth media without cells and WST-1. Experiment was performed in triplicate.
# [1] = IMC analysis of tellurium in PANC-1 xenograft tumour sections
# Source text: For IMC™ analysis, the initial objective was to visualize tellurium signal distribution in tumour sections and subsequently measure relative tellurium content in individual cells. Tumour sections were dewaxed, rehydrated and washed. Slides then were stained with Ir-intercalator to visualize cell nuclei, and then imaged by IMC™. The ^125Te isotope was visualised. […] Without wishing to be bound by theory, it was hypothesized that the processing of the FFPE tissues contributes to loss of tellurium signal as the teniposide interaction with the cells is largely non-covalent, thus the multiple wash steps required for dewaxing (xylene and ethanol washes) might have removed bound 1. To reduce the number of tissue processing steps, snap frozen samples prepared from the same tumours were sectioned and analyzed by IMC™.
# To determine the corresponding concentration of Te present in the sample a set of standards containing increasing concentrations of Te were analyzed by IMC™. Based on the total counts present in each standard Te spot a count/Te atom constant was calculated (FIG. 8E).
# Generation of murine PANC-1 xenograft model: All 6-week-old female NOD SCID mice (Charles River (Wilmington, MA) were maintained under specific pathogen-free (SPF) conditions at the Princess Margaret Cancer Centre (PMCC) facility. All animal experiments in this study were performed in accordance with the Animal Research Committee guidelines of the University Health Network institution. The subcutaneous PANC-1 xenograft mice were generated as described previously in Telox studies. The vehicle was prepared as follows: 30 mg benzyl alcohol, 60 mg N,N-dimethylacetamide, 500 mg purified Cremophor EL (Kolliphor EL), and 2.1 mL dehydrated alcohol were combined in a vial. The solution was topped with distilled water for a final volume of 5 mL. The pH of the clear solution is adjusted to pH ˜5 with maleic acid. For injections, drug was diluted with vehicle for a final concentration of 10 mg/mL and administered at 20 mg/kg by I.P. The mice were maintained in three groups; group 1 mice were injected with teniposide, group 2 received 1, and group 3 with normal saline. After 2 hours, mice were scarified, and tumors were extracted. […]
structure (smiles),measurement,setting,value
"COc1cc([C@@H]2c3cc4c(cc3[C@@H](OC3OC5COC(c6ccc[te]6)OC5C(O)C3O)[C@H]3COC(=O)C23)OCO4)cc(OC)c1O (some centres unmarked) [Compound 1, Tellurium-labelled teniposide]",inhibition at 50 µM,HL-60 cells,≤ 60%
same,^125Te signal in snap frozen tumour sections by IMC,"[1]; 20 mg/kg IP, 2 h before sacrifice, frozen sections",signals were observed
same,Te signal in FFPE tumour sections by IMC,"[1]; 20 mg/kg IP, 2 hours, FFPE sections, ^125Te",no Te signal above background
same,Te signal in samples collected at later timepoints after dosing,"[1]; frozen sections, later timepoints",not observed
same,average concentration in the tissue,"[1]; frozen tumour sections, at the time of analysis, no precise value",low tens
